How the values were obtained:
High Fat Diet C57 Mice = assay: LDL-C lowering activity in high fat diet C57 mice; format: in vivo; conditions: Mus musculus, po, 168 h; C57 mice on high fat diet; 30 mg/Kg orally once a day, 7 days treatment, blood on day 7; read-out: % Change Vs Vehicle Control in LDLc
Procedure: LDL-C Lowering Activity—in High Fat Diet C57 Mice
The in-vivo LDL-c lowering for test compound was tested in C57 mice which were kept on high fat diet for 4 weeks and the blood was collected by retro-orbital sinus puncture method under light ether anesthesia on day 0 (pretreatment). Animal are grouped based on LDL-c levels, after that 7 days treatment with vehicle or test compound orally at a dose of 30 mpk dose once a day was given. On completion of treatment on day 7 of the treatment the blood was collected for LDL-c and TC levels measurement.

PCSK9 = PCSK9 (Homo sapiens, UniProt Q8NBP7); assay: BODIPY-LDL uptake assay in HepG2 cells; format: cell-based; conditions: 5 μg/ml PCSK9, BODIPY-LDL
Chain of PCSK9 (Q8NBP7 153-692): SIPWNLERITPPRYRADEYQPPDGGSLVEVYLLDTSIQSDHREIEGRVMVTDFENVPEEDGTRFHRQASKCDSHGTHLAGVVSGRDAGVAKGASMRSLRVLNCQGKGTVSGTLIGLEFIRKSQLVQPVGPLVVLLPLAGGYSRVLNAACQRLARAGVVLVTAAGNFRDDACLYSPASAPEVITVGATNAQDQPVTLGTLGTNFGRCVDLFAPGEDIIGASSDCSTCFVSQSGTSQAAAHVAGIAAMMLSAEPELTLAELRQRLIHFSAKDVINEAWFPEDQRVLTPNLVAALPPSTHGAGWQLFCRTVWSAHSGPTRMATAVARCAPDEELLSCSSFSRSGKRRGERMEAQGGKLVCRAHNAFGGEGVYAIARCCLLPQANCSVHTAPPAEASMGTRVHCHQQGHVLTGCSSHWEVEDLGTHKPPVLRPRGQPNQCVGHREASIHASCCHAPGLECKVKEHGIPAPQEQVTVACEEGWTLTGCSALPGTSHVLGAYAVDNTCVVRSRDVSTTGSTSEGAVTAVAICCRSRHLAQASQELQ
In short: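 Compounds pre-incubated 60 min with 5 μg/ml PCSK9 (0.2% DMSO), then added to HepG2 cells for 16 h; 1 μg/ml BODIPY-LDL added in serum-free medium for 5 h. Fluorescence (Ex 485/Em 520 nm) normalized to protein; PCSK9-only wells = 0%, no-PCSK9 wells = 100% uptake, giving percent increase in LDL uptake.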

Row | % increase in LDL Uptake (PCSK9; 1 μM test compound) | % increase in LDL Uptake (PCSK9; 10 μM test compound) | % increase in LDL Uptake (PCSK9; 30 μM test compound) | SMILES | change in vivo at 30 mg/kg (High Fat Diet C57 Mice)
1 | 0% | 81% | 127% | COC1(c2ccc(C(=O)N3CC4CN(c5ccc(C(F)(F)F)nc5)CC4C3)cc2)COC1 (stereo not shown) [Example 206, (4-(3-methoxyoxetan-3-yl)phenyl)(5-(6-(trifluoromethyl)pyridin-3-yl)hexahydropyrrolo[3,4-c]pyrrol-2(1H)-yl)methanone] | -18.6 ± 5.7%
2 | 0% | 90% | 140% | O=C(c1ccc(C2(O)COC2)cc1)N1CC2CN(c3ccc(C(F)(F)F)nc3)CC2C1 (stereo not shown) [Example 215, (4-(3-hydroxyoxetan-3-yl)phenyl)(5-(6-(trifluoromethyl)pyridin-3-yl)hexahydropyrrolo[3,4-c]pyrrol-2(1H)-yl)methanone] | -29 ± 5%
3 | 0% | 64% | 189% | O=C(c1ccc(C2(O)COC2)cc1)N1CCN(c2ccc(C(F)(F)F)cn2)CC1 [Example 216, (4-(3-hydroxyoxetan-3-yl)phenyl)(4-(5-(trifluoromethyl)pyridin-2-yl)piperazin-1-yl)methanone] | -40 ± 6%
4 | 8% | 31% | 56% | O=C(c1cccc(C2(O)COC2)c1)N1CCN(c2ccc(C(F)(F)F)cn2)CC1 [Example 220, (3-(3-hydroxyoxetan-3-yl)phenyl)(4-(5-(trifluoromethyl)pyridin-2-yl)piperazin-1-yl)methanone] | -16%

From patent US20230089247A1, “NOVEL COMPOUNDS SUITABLE FOR THE TREATMENT OF DYSLIPIDEMIA” (ZYDUS LIFESCIENCES LIMITED, priority 2019, published 2023)
